Measured values taken from PubChem BioAssay (NCI).
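Compound exposure: 48 hours, 5 concentrations, 96-well plates. Here, GI50 denotes the concentration required for 50% inhibition of growth. The concentration for full growth arrest is given as TGI.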

Experiments:
Test in all cases: inhibition of tumour cell growth, NCI panel, 48 h
ACHN renal = system: ACHN renal
PC-3 prostate = system: PC-3 prostate
SN12C renal = system: SN12C renal
NCI/ADR-RES ovarian = system: NCI/ADR-RES ovarian
NCI-H226 lung = system: NCI-H226 lung
MOLT-4 leukemia = system: MOLT-4 leukemia
SNB-19 CNS = system: SNB-19 CNS
UO-31 renal = system: UO-31 renal
EKVX NSCLC = system: EKVX NSCLC
COLO 205 colon = system: COLO 205 colon

`NC(=O)C(=CNc1nc(-c2ccc(Cl)c(Cl)c2)cs1)C(N)=O` showed a GI50 (ACHN renal) greater than 100 µM, a TGI (ACHN renal) greater than 100 µM and a GI50 (PC-3 prostate) greater than 100 µM. The TGI (PC-3 prostate) was greater than 100 µM, the GI50 (SN12C renal) was greater than 100 µM and the TGI (SN12C renal) was greater than 100 µM. For the same molecule, the GI50 (NCI/ADR-RES ovarian) was greater than 100 µM, the TGI (NCI/ADR-RES ovarian) was greater than 100 µM and the GI50 (NCI-H226 lung) was greater than 100 µM. The TGI (NCI-H226 lung) was greater than 100 µM, the GI50 (MOLT-4 leukemia) was 48.7 µM and the TGI (MOLT-4 leukemia) was greater than 100 µM. It also gave a GI50 (SNB-19 CNS) greater than 100 µM, a TGI (SNB-19 CNS) greater than 100 µM and a GI50 (UO-31 renal) of 12.1 µM. It also gave a TGI (UO-31 renal) greater than 100 µM, a GI50 (EKVX NSCLC) of 43.8 µM and a TGI (EKVX NSCLC) greater than 100 µM. The GI50 (COLO 205 colon) was greater than 100 µM and the TGI (COLO 205 colon) was greater than 100 µM.

Work on `OCCCCC#Cc1ccccc1C#Cc1cccc(O)c1` yielded a GI50 (ACHN renal) of 19.1 µM, a TGI (ACHN renal) of 41.6 µM and a GI50 (PC-3 prostate) of 16.9 µM. The TGI (PC-3 prostate) was 38.1 µM, the GI50 (SN12C renal) was 17.9 µM and the TGI (SN12C renal) was 40 µM. It also gave a GI50 (NCI/ADR-RES ovarian) of 20 µM, a TGI (NCI/ADR-RES ovarian) of 47 µM and a GI50 (NCI-H226 lung) of 22 µM. It also gave a TGI (NCI-H226 lung) of 47.3 µM, a GI50 (MOLT-4 leukemia) of 18 µM and a TGI (MOLT-4 leukemia) of 40.7 µM. The GI50 (SNB-19 CNS) was 15.5 µM, the TGI (SNB-19 CNS) was 32.8 µM and the GI50 (UO-31 renal) was 15.9 µM. It also gave a TGI (UO-31 renal) of 32.5 µM, a GI50 (EKVX NSCLC) of 23.5 µM and a TGI (EKVX NSCLC) of 57 µM. For the same molecule, the GI50 (COLO 205 colon) was 19.7 µM and the TGI (COLO 205 colon) was 35.6 µM.

Work on `O=C(O)c1cccc(OCCO)c1` yielded a TGI (ACHN renal) greater than 100 µM, a TGI (PC-3 prostate) greater than 100 µM and a TGI (SN12C renal) greater than 100 µM. The TGI (NCI/ADR-RES ovarian) was greater than 100 µM, the TGI (NCI-H226 lung) was greater than 100 µM and the TGI (MOLT-4 leukemia) was greater than 100 µM. For the same molecule, the TGI (SNB-19 CNS) was greater than 100 µM, the TGI (UO-31 renal) was greater than 100 µM and the TGI (EKVX NSCLC) was greater than 100 µM. For the same molecule, the TGI (COLO 205 colon) was greater than 100 µM.

For `O=C(Nc1cccc(Cl)c1Cl)c1cccc(NC2=C(Cl)C(=O)N(Cc3ccccc3)C2=O)c1`, the GI50 (ACHN renal) was 54.7 µM, the TGI (ACHN renal) was greater than 100 µM and the GI50 (PC-3 prostate) was 26.9 µM. It also gave a TGI (PC-3 prostate) of 97.4 µM, a GI50 (SN12C renal) of 30.2 µM and a TGI (SN12C renal) greater than 100 µM. It also gave a GI50 (NCI/ADR-RES ovarian) of 12.6 µM, a TGI (NCI/ADR-RES ovarian) of 62.5 µM and a GI50 (NCI-H226 lung) of 31.7 µM. For the same molecule, the TGI (NCI-H226 lung) was greater than 100 µM, the GI50 (MOLT-4 leukemia) was 3.11 µM and the TGI (MOLT-4 leukemia) was 9.07 µM. For the same molecule, the GI50 (SNB-19 CNS) was greater than 100 µM, the TGI (SNB-19 CNS) was greater than 100 µM and the GI50 (UO-31 renal) was 21.1 µM. It also gave a TGI (UO-31 renal) greater than 100 µM, a GI50 (EKVX NSCLC) of 34.2 µM and a TGI (EKVX NSCLC) of 89.2 µM. It also gave a GI50 (COLO 205 colon) greater than 100 µM and a TGI (COLO 205 colon) greater than 100 µM.

For `COC(=O)[C@@H](NC(=O)[C@@H](OC)[C@@H]1Cc2cc3cc(OC4CC(OC5CC(O)C(O)C(C)O5)C(O)C(C)O4)c(C)c(O)c3c(O)c2C(=O)[C@H]1OC1CC(OC2CC(OC3CC(C)(O)C(O)C(C)O3)C(O)C(C)O2)C(O)C(C)O1)C(C)C` (stereo not given in full), the GI50 (ACHN renal) was 0.0956 µM, the TGI (ACHN renal) was 3.7 µM and the GI50 (PC-3 prostate) was 0.149 µM. For the same molecule, the TGI (PC-3 prostate) was greater than 32.5 µM, the GI50 (SN12C renal) was 0.145 µM and the TGI (SN12C renal) was greater than 32.5 µM. The GI50 (NCI/ADR-RES ovarian) was 23.7 µM, the TGI (NCI/ADR-RES ovarian) was greater than 32.5 µM and the GI50 (NCI-H226 lung) was 0.109 µM. The TGI (NCI-H226 lung) was 0.963 µM, the GI50 (MOLT-4 leukemia) was 0.136 µM and the TGI (MOLT-4 leukemia) was 5.24 µM. The GI50 (SNB-19 CNS) was 0.157 µM, the TGI (SNB-19 CNS) was greater than 32.5 µM and the GI50 (UO-31 renal) was 0.129 µM. It also gave a TGI (UO-31 renal) of 4.4 µM, a GI50 (EKVX NSCLC) of 0.162 µM and a TGI (EKVX NSCLC) greater than 32.5 µM. It also gave a GI50 (COLO 205 colon) of 0.137 µM and a TGI (COLO 205 colon) greater than 32.5 µM.

For `CCOC(=O)N1CCN(C(=O)c2ccc(C(F)(F)F)nc2Nc2cc(Cl)ccc2C)CC1`, the GI50 (ACHN renal) was 13.9 µM, the TGI (ACHN renal) was 89.4 µM and the GI50 (PC-3 prostate) was 7.71 µM. The TGI (PC-3 prostate) was greater than 100 µM, the GI50 (SN12C renal) was 36.8 µM and the TGI (SN12C renal) was greater than 100 µM. For the same molecule, the GI50 (NCI/ADR-RES ovarian) was 15.4 µM, the TGI (NCI/ADR-RES ovarian) was greater than 100 µM and the GI50 (NCI-H226 lung) was 20.5 µM. The TGI (NCI-H226 lung) was 68.6 µM, the GI50 (MOLT-4 leukemia) was 6.63 µM and the TGI (MOLT-4 leukemia) was 64.8 µM. The GI50 (SNB-19 CNS) was greater than 100 µM, the TGI (SNB-19 CNS) was greater than 100 µM and the GI50 (UO-31 renal) was 7.82 µM. For the same molecule, the TGI (UO-31 renal) was greater than 100 µM, the GI50 (EKVX NSCLC) was 23.2 µM and the TGI (EKVX NSCLC) was greater than 100 µM. It also gave a GI50 (COLO 205 colon) of 18.9 µM and a TGI (COLO 205 colon) of 51.6 µM.

With `COc1cc2c(cc1OC)C13CCN4CC5=CCOC6CC(=O)N2C1C6C5CC43O` (stereo not given) the TGI (ACHN renal) was greater than 100 µM, the TGI (PC-3 prostate) was greater than 100 µM and the TGI (SN12C renal) was greater than 100 µM. The TGI (NCI/ADR-RES ovarian) was greater than 100 µM, the TGI (NCI-H226 lung) was greater than 100 µM and the TGI (MOLT-4 leukemia) was greater than 100 µM. For the same molecule, the TGI (SNB-19 CNS) was greater than 100 µM, the TGI (UO-31 renal) was greater than 100 µM and the TGI (EKVX NSCLC) was greater than 100 µM. For the same molecule, the TGI (COLO 205 colon) was greater than 100 µM.

With `O=C(O)c1cc(O)c2c(c1)C(C1c3cc(C(=O)O)cc(O)c3C(=O)c3c(OC4OC(CO)C(O)C(O)C4O)cccc31)c1cccc(OC3OC(CO)C(O)C(O)C3O)c1C2=O` (stereo not given) the GI50 (ACHN renal) was greater than 100 µM, the TGI (ACHN renal) was greater than 100 µM and the GI50 (PC-3 prostate) was greater than 100 µM. The TGI (PC-3 prostate) was greater than 100 µM, the GI50 (SN12C renal) was greater than 100 µM and the TGI (SN12C renal) was greater than 100 µM. It also gave a GI50 (NCI/ADR-RES ovarian) greater than 100 µM, a TGI (NCI/ADR-RES ovarian) greater than 100 µM and a GI50 (NCI-H226 lung) greater than 100 µM. For the same molecule, the TGI (NCI-H226 lung) was greater than 100 µM, the GI50 (MOLT-4 leukemia) was greater than 100 µM and the TGI (MOLT-4 leukemia) was greater than 100 µM. It also gave a GI50 (SNB-19 CNS) greater than 100 µM, a TGI (SNB-19 CNS) greater than 100 µM and a GI50 (UO-31 renal) greater than 100 µM. It also gave a TGI (UO-31 renal) greater than 100 µM, a GI50 (EKVX NSCLC) greater than 100 µM and a TGI (EKVX NSCLC) greater than 100 µM. For the same molecule, the GI50 (COLO 205 colon) was greater than 100 µM and the TGI (COLO 205 colon) was greater than 100 µM.

Molecule `COc1ccc(CNc2c3ccccc3nc3ccccc23)cc1OC` has a GI50 (ACHN renal) of 1.39 µM, a TGI (ACHN renal) of 7.94 µM and a GI50 (PC-3 prostate) of 2.58 µM. It also gave a TGI (PC-3 prostate) of 9.97 µM, a GI50 (SN12C renal) of 2.36 µM and a TGI (SN12C renal) of 8.54 µM. The GI50 (NCI/ADR-RES ovarian) was 1.75 µM, the TGI (NCI/ADR-RES ovarian) was 6.61 µM and the GI50 (NCI-H226 lung) was 2.25 µM. It also gave a TGI (NCI-H226 lung) of 7.04 µM, a GI50 (MOLT-4 leukemia) of 2.25 µM and a TGI (MOLT-4 leukemia) of 25.6 µM. The GI50 (SNB-19 CNS) was 3.3 µM, the TGI (SNB-19 CNS) was 17.2 µM and the GI50 (UO-31 renal) was 1.17 µM. For the same molecule, the TGI (UO-31 renal) was 5.05 µM, the GI50 (EKVX NSCLC) was 2.7 µM and the TGI (EKVX NSCLC) was 12.4 µM. It also gave a GI50 (COLO 205 colon) of 1.32 µM and a TGI (COLO 205 colon) of 3.82 µM.

In the case of `COc1cc2cn3c4ccc(O)cc4[nH]c(=O)c3c2cc1OC`, the GI50 (ACHN renal) is reported as 0.0361 µM, the TGI (ACHN renal) is reported as 1.61 µM and the GI50 (PC-3 prostate) is reported as 0.0461 µM. For the same molecule, the TGI (PC-3 prostate) was 2.02 µM, the GI50 (SN12C renal) was 0.0435 µM and the TGI (SN12C renal) was 1.98 µM. The GI50 (NCI/ADR-RES ovarian) was 0.0883 µM, the TGI (NCI/ADR-RES ovarian) was 2.01 µM and the GI50 (NCI-H226 lung) was 0.0374 µM. It also gave a TGI (NCI-H226 lung) of 16.8 µM, a GI50 (MOLT-4 leukemia) of 0.0439 µM and a TGI (MOLT-4 leukemia) of 2.01 µM. It also gave a GI50 (SNB-19 CNS) of 0.0245 µM, a TGI (SNB-19 CNS) of 1.94 µM and a GI50 (UO-31 renal) of 0.0398 µM. It also gave a TGI (UO-31 renal) of 1.64 µM, a GI50 (EKVX NSCLC) of 0.0607 µM and a TGI (EKVX NSCLC) of 2 µM. The GI50 (COLO 205 colon) was 0.0201 µM and the TGI (COLO 205 colon) was 0.429 µM.
